The values that follow come from patent US5434266A, “Monosaccharide analog-based glycosidase inhibitors” (priority 1993, dated 1995).

One experiment relates to mannosidases. The following applies: cited from earlier work.
Experiment [1] addresses T1, A. niger amyloglucosidase (Aspergillus niger, UniProt P69328).
T1 construct: host or cells: Aspergillus niger
The experiment is described as follows: Glycosidase inhibition, A. niger amyloglucosidase. The experiment is classed as biochemical. The settings on record: pH 5.0, read-out: amylo-Glu pH 5.0 (class). The method, then: (§1) An acceptable concentration of enzyme, upon hydrolysis of the corresponding glycoside, should give an absorbance reading between 0.4 and 2.0 at 400 nm. A control assay was first performed to determine whether the enzyme concentration was acceptable. The assays involved addition of working enzyme solution (0.09 mL) and deionized water (0.18 mL) to buffer at the appropriate pH (0.09 mL, phosphate-citrate). The resulting solution was incubated at 37° C. for 5 minutes. Aliquots (0.1 mL) of this preincubation mixture was then added to three separate test tubes. Substrate (the corresponding p-nitrophenyl-D-glycoside, 0.1 mL, 10 mM in appropriate buffer), which had also been incubated at 37° C., was then added to each tube at thirty-second intervals. The hydrolyses were allowed to continue for 0.25 hours and then quenched by addition of glycine buffer (2.5 mL). The absorbance of the resulting solution was measure at 400 nm. Once this control run of the system gave an absorbance within 0.4-2.0, the potential inhibitors were assayed against this working enzyme solution at final inhibitor and substrate concentrations of 1 and 5 mM, respectively. In the inhibitor assays, deionized water was replaced by the inhibitor ([…] solution in deionized water). All inhibitors were tested in triplicate, with a control (by substituting the inhibitors with deionized water) and a standard.
(§2) Five substrate solutions (usually […]) and five inhibitor solutions (usually 0-200 μM) were prepared. […] The amound of released p-nitrophenolate was measured spectrophotometrically at 400 nm. […]
(§3) The velocities (V) of substrate hydrolysis at every combination of inhibitor [I] and substrate [S] concentrations were determined by plotting the absorbance values with respect to time and t]hen calculating the slopes of the lines. […] KI values were also calculated from Hanes-Woolf plots of [S]/V vs. [S] by replotttng the [S]/V intercepts versus [I] and ascertaining the [I] intercept. […]

In a further experiment the target is T2, jackbean α-mannosidase (Canavalia ensiformis, UniProt C0HJB3).
T2 construct: host or cells: jack bean
T2 sequence (C0HJB3 1-981): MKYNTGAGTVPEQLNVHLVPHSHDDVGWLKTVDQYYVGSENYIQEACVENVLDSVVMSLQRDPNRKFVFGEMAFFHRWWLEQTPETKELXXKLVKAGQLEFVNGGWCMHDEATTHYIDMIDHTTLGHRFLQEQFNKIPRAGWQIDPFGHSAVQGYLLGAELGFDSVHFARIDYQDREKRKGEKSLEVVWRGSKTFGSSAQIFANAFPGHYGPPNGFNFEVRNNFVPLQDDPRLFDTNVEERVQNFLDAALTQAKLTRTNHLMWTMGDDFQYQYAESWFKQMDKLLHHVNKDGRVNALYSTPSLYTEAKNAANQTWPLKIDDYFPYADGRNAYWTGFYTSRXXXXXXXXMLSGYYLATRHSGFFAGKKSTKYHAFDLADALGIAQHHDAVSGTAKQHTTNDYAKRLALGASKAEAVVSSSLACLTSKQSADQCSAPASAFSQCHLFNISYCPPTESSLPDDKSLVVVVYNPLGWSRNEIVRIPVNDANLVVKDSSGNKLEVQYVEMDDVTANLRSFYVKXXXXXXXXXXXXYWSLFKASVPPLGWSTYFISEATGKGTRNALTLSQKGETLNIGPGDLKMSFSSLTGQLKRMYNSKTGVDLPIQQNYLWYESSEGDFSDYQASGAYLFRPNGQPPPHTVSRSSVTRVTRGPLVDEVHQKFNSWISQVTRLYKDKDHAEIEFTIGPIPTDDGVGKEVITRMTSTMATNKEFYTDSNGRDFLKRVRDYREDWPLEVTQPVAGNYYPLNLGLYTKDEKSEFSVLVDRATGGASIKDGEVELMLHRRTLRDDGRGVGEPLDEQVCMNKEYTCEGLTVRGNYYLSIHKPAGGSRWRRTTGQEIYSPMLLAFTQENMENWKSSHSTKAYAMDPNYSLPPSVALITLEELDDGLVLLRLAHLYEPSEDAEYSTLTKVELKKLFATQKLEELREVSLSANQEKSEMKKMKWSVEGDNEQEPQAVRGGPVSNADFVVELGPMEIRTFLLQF
The experiment is described as follows: Glycosidase inhibition / KI determination, jackbean α-mannosidase. The experiment is classed as biochemical. The method, then:
(§4) pH for Enzyme Assays--Yeast e-glucosidase and green coffee bean α-galactosidase were assayed at pH 6.6. Almond β-glucosidase and jackbean α-mannosidase were assayed at pH 5.0. Bovine liver β-galactosidase was assayed at pH 7.0.
(§5) Working Enzyme Solutions--Typical enzyme concentrations in the assay buffer for inhibitor screening were as follows: yeast α-glucosidase, 10 μL of enzyme suspension in 2.00 mL pH 6.6 phosphate-citrate buffer; almond β-glucosidase, 25 μL of enzyme solution (0.4 mg solid enzyme in 70 μL pH 5.0 NaCl/NaOAc buffer) in 5.00 mL pH 5.0 NaCl/NaOAc buffer; jackbean α-mannosidase, 5-8 μL of enzyme suspension in 2.00 mL NaCl/NaOAc buffer; green coffee bean α galactosidase, 15 μL of enzyme suspension in 1.2 mL NaCl/NaOAc buffer; bovine liver β-galactosidase, 1.7 mg solid enzyme in 850 μL, NaCl/NaOAc buffer.
as §1
(§6) Five substrate solutions (usually […]) and five inhibitor solutions (usually 0-200 μM) were prepared. To a 3-mL test tube were added buffer at the appropriate pH (0.28 mL, phosphate-citrate), working enzyme solution (0.28 mL) and inhibitor solution (0.56 mL). The solution was incubated at 37° C. for 5 minutes. Aliquots (0.1 mL) of this solution were then pipetted into ten separate test tubes. Substrate solution (0.1 mL) was then added to each tube at thirty-second intervals. Duplicate reactions were terminated by addition of glycine buffer (2.5 mL) at the end of 3, 6, 8, 10, and 12 minutes. The amound of released p-nitrophenolate was measured spectrophotometrically at 400 nm. The process was repeated for all combinations of inhibitor and substrate concentrations.
(§7) The velocities (V) of substrate hydrolysis at every combination of inhibitor [I] and substrate [S] concentrations were determined by plotting the absorbance values with respect to time and t]hen calculating the slopes of the lines. Double reciprocal plots of 1/V versus 1/[S] at different [I] were then generated. The slopes of each of these lines were then plotted against [I] and the data were fitted to a straight line. The [I]-intercept gave the enzyme-inhibitor dissociation constant. KI values were also calculated from Hanes-Woolf plots of [S]/V vs. [S] by replotttng the [S]/V intercepts versus [I] and ascertaining the [I] intercept. KI values in the Table represent an average of the two calculations.

The target in another experiment is T3, yeast α-glucosidase (Saccharomyces cerevisiae, UniProt P53341).
T3 construct: host or cells: yeast
T3 sequence (P53341 whole entry): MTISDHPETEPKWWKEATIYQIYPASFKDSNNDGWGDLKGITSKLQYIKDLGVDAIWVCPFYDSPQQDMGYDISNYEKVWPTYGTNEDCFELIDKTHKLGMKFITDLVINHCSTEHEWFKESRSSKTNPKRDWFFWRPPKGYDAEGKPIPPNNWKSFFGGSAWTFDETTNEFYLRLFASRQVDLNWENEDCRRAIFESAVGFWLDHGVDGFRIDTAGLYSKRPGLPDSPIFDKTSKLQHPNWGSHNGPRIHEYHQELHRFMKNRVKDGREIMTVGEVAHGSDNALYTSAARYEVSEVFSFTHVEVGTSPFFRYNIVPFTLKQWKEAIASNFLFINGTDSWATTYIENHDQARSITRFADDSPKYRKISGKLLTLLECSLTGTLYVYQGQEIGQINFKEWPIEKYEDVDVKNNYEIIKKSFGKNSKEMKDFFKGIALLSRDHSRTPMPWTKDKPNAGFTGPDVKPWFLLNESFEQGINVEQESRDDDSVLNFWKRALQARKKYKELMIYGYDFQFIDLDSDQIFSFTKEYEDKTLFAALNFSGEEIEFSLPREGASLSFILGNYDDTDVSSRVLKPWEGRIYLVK
Put plainly: Glycosidase inhibition / KI determination, yeast α-glucosidase. The experiment is classed as biochemical. The method, then: as §4, §5
(§8) An acceptable concentration of enzyme, upon hydrolysis of the corresponding glycoside, should give an absorbance reading between 0.4 and 2.0 at 400 nm. A control assay was first performed to determine whether the enzyme concentration was acceptable. The assays involved addition of working enzyme solution (0.09 mL) and deionized water (0.18 mL) to buffer at the appropriate pH (0.09 mL, phosphate-citrate). […] The absorbance of the resulting solution was measure at 400 nm. Once this control run of the system gave an absorbance within 0.4-2.0, the potential inhibitors were assayed against this working enzyme solution at final inhibitor and substrate concentrations of 1 and 5 mM, respectively. […]
as §2, §3

The target in experiment [2] is T4, bovine liver β-galactosidase (Bos taurus, UniProt F1MNT6).
T4 construct: from tissue; host or cells: bovine liver
T4 sequence (F1MNT6 1-469): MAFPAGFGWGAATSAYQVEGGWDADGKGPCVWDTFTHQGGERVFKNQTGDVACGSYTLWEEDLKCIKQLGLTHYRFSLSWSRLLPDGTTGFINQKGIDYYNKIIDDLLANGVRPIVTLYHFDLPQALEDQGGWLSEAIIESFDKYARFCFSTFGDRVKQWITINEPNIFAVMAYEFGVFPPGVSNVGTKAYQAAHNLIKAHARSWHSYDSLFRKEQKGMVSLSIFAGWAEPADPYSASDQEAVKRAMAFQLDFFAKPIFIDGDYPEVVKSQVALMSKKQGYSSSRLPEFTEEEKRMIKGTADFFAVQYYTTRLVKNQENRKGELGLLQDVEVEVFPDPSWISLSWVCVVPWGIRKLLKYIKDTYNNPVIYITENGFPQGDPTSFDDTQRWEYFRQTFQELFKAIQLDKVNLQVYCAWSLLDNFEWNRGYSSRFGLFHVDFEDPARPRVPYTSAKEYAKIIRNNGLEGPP
The experiment is described as follows: Glycosidase inhibition / KI determination, bovine liver β-galactosidase. The experiment is classed as biochemical. The method, then:
as §4, §5, §1, §6
The velocities (V) of substrate hydrolysis at every combination of inhibitor [I] and substrate [S] concentrations were determined by plotting the absorbance values with respect to time and t]hen calculating the slopes of the lines. Double reciprocal plots of 1/V versus 1/[S] at different [I] were then generated. […] KI values were also calculated from Hanes-Woolf plots of [S]/V vs. [S] by replotttng the [S]/V intercepts versus [I] and ascertaining the [I] intercept. […]

Experiment [3] deals with green coffee bean α-galactosidase (Coffea arabica, UniProt Q42656). The experiment is described as follows: Glycosidase inhibition, green coffee bean α-galactosidase. Format: biochemical. The settings on record: coffeebean galactosidase. The method, then: as §4, §5, §8, §2, §3
Sequence of green coffee bean α-galactosidase (Q42656 16-378): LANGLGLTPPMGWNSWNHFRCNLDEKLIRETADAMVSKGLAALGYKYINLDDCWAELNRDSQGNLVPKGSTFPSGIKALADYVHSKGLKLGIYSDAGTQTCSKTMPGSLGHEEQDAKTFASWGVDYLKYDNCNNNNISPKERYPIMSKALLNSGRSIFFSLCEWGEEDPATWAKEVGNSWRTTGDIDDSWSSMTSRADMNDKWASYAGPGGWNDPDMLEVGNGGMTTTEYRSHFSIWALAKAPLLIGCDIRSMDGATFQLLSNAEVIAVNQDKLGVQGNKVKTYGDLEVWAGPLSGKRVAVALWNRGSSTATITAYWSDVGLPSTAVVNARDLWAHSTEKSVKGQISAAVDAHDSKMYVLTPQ
For a further experiment, the target named is almond β-glucosidase. Put plainly: Glycosidase inhibition / KI determination, almond β-glucosidase. The experiment is classed as biochemical. The following applies: pH 5.0, read-out: KI β-Glu pH 5.0. The method, then:
as §4, §5, §1, §6, §7

Another experiment concerns HIV. The following applies: cited from earlier work.
A further experiment deals with glucosidases. The following applies: cited from earlier work.
The next experiment concerns galactosidases. The following applies: cited from earlier work.
[4] abbreviates: pH 5.0, read-out: KI α-man pH 5.0.
Where [5] appears, read: pH 7.0, read-out: β-gal pH 7.0 (class).
Setting [6] is: pH 7.0, read-out: KI β-gal pH 7.0.

Like-named read-outs stand apart in the source and are kept apart here. Some results are limits rather than exact numbers.

T1 sequence (P69328 25-640): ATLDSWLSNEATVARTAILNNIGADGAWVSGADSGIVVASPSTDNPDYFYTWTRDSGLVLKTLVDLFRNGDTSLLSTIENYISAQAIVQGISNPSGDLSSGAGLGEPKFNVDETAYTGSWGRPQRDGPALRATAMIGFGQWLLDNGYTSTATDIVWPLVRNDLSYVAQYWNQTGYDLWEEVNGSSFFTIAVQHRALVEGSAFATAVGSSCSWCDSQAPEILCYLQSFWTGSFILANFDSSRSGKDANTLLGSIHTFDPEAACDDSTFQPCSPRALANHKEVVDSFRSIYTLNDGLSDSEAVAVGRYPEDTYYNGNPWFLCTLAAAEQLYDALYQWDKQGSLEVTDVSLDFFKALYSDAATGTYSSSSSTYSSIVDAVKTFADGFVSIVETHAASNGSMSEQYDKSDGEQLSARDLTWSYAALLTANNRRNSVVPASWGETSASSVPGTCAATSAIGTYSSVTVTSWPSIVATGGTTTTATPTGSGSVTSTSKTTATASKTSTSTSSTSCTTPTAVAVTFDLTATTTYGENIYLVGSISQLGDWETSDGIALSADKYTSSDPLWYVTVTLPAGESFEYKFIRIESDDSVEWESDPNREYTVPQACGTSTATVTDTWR

Consider `OC[C@H]1NC[C@@H](O)[C@@H](O)[C@@H]1O` [C, 1-deoxymannojirimycin], for which, in the experiment on mannosidases, the mannosidase inhibition entry is given as “inhibits mannosidases”.
Regarding `NC1=N[C@H](CO)[C@@H](O)[C@H](O)[C@H]1O` [Compound 1, D-Glucoamidine], the Ki was more than 1000 µM in experiment [1], 9 µM at jackbean α-mannosidase (setting [4]), less than 100 µM in experiment [2] (setting [5]) and 8 µM on almond β-glucosidase. Also, the “α-Glu pH 6.6 (class)” value on yeast α-glucosidase is given as “none”. Moreover, the “α-gal pH 6.6 (class)” value in experiment [3] is recorded as “none”.
For the molecule `CN(C)C1=N[C@H](CO)[C@@H](O)[C@H](O)[C@H]1O` [Compound 2, D-Gluco-N,N-Dimethylamidine], the Ki in experiment [1] is more than 1000 µM; at jackbean α-mannosidase (pH 5.0, read-out: α-man pH 5.0 (class)), less than 100 µM; in [2] (setting [5]), less than 100 µM; on almond β-glucosidase it was 83 µM. Further, at yeast α-glucosidase, the “α-Glu pH 6.6 (class)” value is reported as “none”. The “α-gal pH 6.6 (class)” value in experiment [3] was “none”.
Regarding `NNC1=N[C@H](CO)[C@@H](O)[C@H](O)[C@H]1O` [Compound 8, D-Glucoamidrazone], the Ki turned out to be 6.5 ± 3 µM at jackbean α-mannosidase (setting [4]), 19 µM in experiment [2] (setting [6]) and 8.4 ± 0.9 µM at almond β-glucosidase.
The like results for `NNC1=N[C@H](CO)[C@@H](O)[C@H](O)[C@@H]1O` [Compound 9, D-Mannoamidrazone] were, in that order, 0.166 ± 0.013 µM, 57 ± 2.5 µM and 205 ± 25 µM.
Consider `OC[C@H]1N=C(NO)[C@H](O)[C@@H](O)[C@@H]1O` [Compound 13, D-Glucoamidoxime], for which the results for the Ki on jackbean α-mannosidase (setting [4]) and at almond β-glucosidase were 10 ± 2 µM and 13.8 ± 3 µM, respectively.
With `OC[C@H]1N=C(NO)[C@@H](O)[C@@H](O)[C@@H]1O` [Compound 15, D-Mannoamidoxime], the Ki on jackbean α-mannosidase (setting [4]) was 2 ± 0.1 µM.
Regarding `OC[C@H]1NC[C@H](O)[C@@H](O)[C@@H]1O` [Compound B, 1-deoxynojirimycin], the “effect on infectivity of HIV” value with HIV is “interfere with the infectivity of HIV”. The glucosidase inhibition entry with glucosidases is on record as “potent glucosidase inhibitors”.
In the case of `OC[C@H]1NC(O)[C@H](O)[C@@H](O)[C@H]1O` (stereo partly drawn) [D, galactostatin], the galactosidase inhibition entry in the experiment on galactosidases is reported as “inhibits galactosidases”.
With `OC[C@H]1NC(O)[C@H](O)[C@@H](O)[C@@H]1O` (stereo partly drawn) [Nojirimycin, nojirimycin, reference compound], the Ki in [1] was more than 1000 µM; on yeast α-glucosidase (pH 6.6, read-out: KI α-Glu pH 6.6), 13 µM; in experiment [2] (setting [5]), more than 1000 µM; at almond β-glucosidase, 380 µM. Further, the glucosidase inhibition entry with glucosidases was “potent glucosidase inhibitors”. The “α-man pH 5.0 (class)” value at jackbean α-mannosidase was “moderate”. Also, the “α-gal pH 6.6 (class)” value in [3] is “mod-none”.
Consider `NC1O[C@H](CO)[C@@H](O)[C@H](O)[C@H]1O` (stereo partly drawn) [glucosylamine], for which the “inhibition of α- and β-glucosidases” value in the experiment with glucosidases (α- and β-glucosidases) is “inhibits both α- and β-glucosidases”.
